Assay results reported in ChEMBL document CHEMBL4052785, “Discovery of (R)-5-(benzo[d][1,3]dioxol-5-yl)-7-((1-(vinylsulfonyl)pyrrolidin-2-yl)methyl)-7H-pyrrolo[2,3-d]pyrimidin-4-amine (B6) as a potent Bmx inhibitor for the treatment of NSCLC” (Bioorg Med Chem Lett, 2017).
pIC50: −log10 of the molar value. ≈ marks a conversion by molar mass, not a printed value.

How the values were obtained:
[1] = species: Homo sapiens; test: Selectivity ratio of IC50 for human N-terminal 6His-tagged HER4 (706 to 991 residues) to IC50 for human full length N-terminal His6-tagged BMX
[2] = target: Tyrosine-protein kinase TXK (Homo sapiens, UniProt P42681); test: Inhibition of recombinant human N-terminal His6-tagged TXK (256 to end residues) expressed in baculovirus Sf21 insect cells preincubated for 5 mins followed by substrate addition after 30 to 60 mins in presence of ATP by fluorescence assay
[3] = target: Tyrosine-protein kinase FRK (Homo sapiens, UniProt P42685); test: Inhibition of recombinant human N-terminal His6-tagged FRK (218 to end residues) expressed in baculovirus Sf21 insect cells preincubated for 5 mins followed by substrate addition after 30 to 60 mins in presence of ATP by fluorescence assay
[4] = species: Homo sapiens; test: Selectivity ratio of IC50 for recombinant human N-terminal His6-tagged EGFR (696 to end residues) to IC50 for human full length N-terminal His6-tagged BMX
[5] = target: Tyrosine-protein kinase Lyn (Homo sapiens, UniProt P07948); test: Inhibition of recombinant human full length N-terminal His6-tagged LYN expressed in Sf21 insect cells preincubated for 5 mins followed by […] substrate addition after 30 to 60 mins in presence of ATP by fluorescence assay
[6] = species: Homo sapiens; test: Selectivity ratio of IC50 for recombinant human N-terminal His6-tagged TXK (256 to end residues) to IC50 for human full length N-terminal His6-tagged BMX
[7] = target: Receptor tyrosine-protein kinase erbB-2 (Homo sapiens, UniProt P04626); test: Inhibition of human C-terminal 6His-tagged Her2 (676 to end) expressed in baculovirus Sf21 insect cells preincubated for 5 mins followed by biotinyl-beta Abeta Abeta AAEEEEYFELVAKKK substrate addition after 30 to 60 mins in presence of ATP by fluorescence assay
[8] = target: Serine/threonine-protein kinase PLK1 (Homo sapiens, UniProt P53350); test: Inhibition of recombinant human N-terminal His6-tagged PLK1 expressed in baculovirus Sf21 insect cells preincubated for 5 mins followed by substrate addition after 30 to 60 mins in presence of ATP by fluorescence assay
[9] = species: Homo sapiens; test: Selectivity ratio of IC50 for recombinant human N-terminal His6-tagged JAK3 (781 to end residues) to IC50 for human full length N-terminal His6-tagged BMX
[10] = species: Homo sapiens; test: Selectivity ratio of IC50 for recombinant human full length N-terminal His6-tagged NEK2 to IC50 for human full length N-terminal His6-tagged BMX
[11] = target: Tyrosine-protein kinase HCK (Homo sapiens, UniProt P08631); test: Inhibition of recombinant human N-terminal His6-tagged HCK (230 to 497 residues) expressed in baculovirus Sf21 insect cells preincubated for 5 mins followed by substrate addition after 30 to 60 mins in presence of ATP by fluorescence assay
[12] = species: Homo sapiens; test: Selectivity ratio of IC50 for recombinant human full length N-terminal His6-tagged LCK to IC50 for human full length N-terminal His6-tagged BMX
[13] = target: Tyrosine-protein kinase CSK (Homo sapiens, UniProt P41240); test: Inhibition of recombinant human full length N-terminal GST-tagged CSK expressed in Escherichia coli BL21 (DE3) cells preincubated for 5 mins followed by biotinyl-beta Abeta Abeta AEEEPQYEEIPIYLELLP substrate addition after 30 to 60 mins in presence of ATP by fluorescence assay
[14] = target: Macrophage colony-stimulating factor 1 receptor (Homo sapiens, UniProt P07333); test: Inhibition of recombinant human N-terminal His6-tagged FMS (538 to end residues) expressed in baculovirus Sf21 insect cells preincubated for 5 mins followed by substrate addition after 30 to 60 mins in presence of ATP by fluorescence assay
[15] = target: Receptor-interacting serine/threonine-protein kinase 2 (Homo sapiens, UniProt O43353); test: Inhibition of recombinant human N-terminal His6-tagged RIPK2 (1 to 299 residues) expressed in baculovirus Sf21 insect cells preincubated for 5 mins followed by substrate addition after 30 to 60 mins in presence of ATP by fluorescence assay
[16] = species: Homo sapiens; test: Selectivity ratio of IC50 for recombinant human N-terminal His6-tagged ITK (352 to 617 residues) to IC50 for human full length N-terminal His6-tagged BMX
[17] = target: Tyrosine-protein kinase ITK/TSK (Homo sapiens, UniProt Q08881); test: Inhibition of recombinant human N-terminal His6-tagged ITK (352 to 617 residues) expressed in baculovirus Sf21 insect cells preincubated for 5 mins followed by Ulight-TK peptide substrate addition after 30 to 60 mins in presence of ATP by fluorescence assay
[18] = species: Homo sapiens; test: Selectivity ratio of IC50 for recombinant human N-terminal GST-tagged FLT3 (564 to end residues) to IC50 for human full length N-terminal His6-tagged BMX
[19] = target: Platelet-derived growth factor receptor alpha (Homo sapiens, UniProt P16234); test: Inhibition of human PDGFRalpha expressed in baculovirus Sf21 insect cells preincubated for 5 mins followed by substrate addition after 30 to 60 mins in presence of ATP by fluorescence assay
[20] = target: Proto-oncogene tyrosine-protein kinase receptor Ret (Homo sapiens, UniProt P07949); test: Inhibition of recombinant human N-terminal GST-tagged RET (658 to end residues) expressed in baculovirus Sf21 insect cells preincubated for 5 mins followed by biotinyl-beta Abeta Abeta AAEEEEYFELVAKKK substrate addition after 30 to 60 mins in presence of ATP by fluorescence assay
[21] = target: Receptor tyrosine-protein kinase erbB-4 (Homo sapiens, UniProt Q15303); test: Inhibition of human N-terminal 6His-tagged HER4 (706 to 991 residues) preincubated for 5 mins followed by substrate addition after 30 to 60 mins in presence ATP of fluorescence assay
[22] = target: Tyrosine-protein kinase Yes (Homo sapiens, UniProt P07947); test: Inhibition of recombinant human full length N-terminal His6-tagged YES expressed in baculovirus Sf21 insect cells preincubated for 5 mins followed by biotinyl-beta Abeta Abeta AYQAEENTYDEYEN substrate addition after 30 to 60 mins in presence of ATP by fluorescence assay
[23] = Aqueous solubility of the compound at 1 mg; assay type: physicochemical
[24] = test system: Mus musculus; test: Toxicity in nude mouse xenografted with human NCI-H1975 cells assessed as abnormal behavior at 25 mg/kg administered qd via oral gavage for 18 days measured on day 14; assay type: organism-based; conditions: in vivo, 432 h
[25] = target: Proto-oncogene tyrosine-protein kinase Src (Homo sapiens, UniProt P12931); test: Inhibition of recombinant human full length N-terminal His6-tagged SRC expressed in Sf21 insect cells preincubated for 5 mins followed by substrate addition after 30 to 60 mins in presence of ATP by fluorescence assay
[26] = species: Homo sapiens; test: Selectivity ratio of IC50 for RSK1 (unknown origin) to IC50 for human full length N-terminal His6-tagged BMX
[27] = species: Homo sapiens; test: Selectivity ratio of IC50 for recombinant human full length N-terminal His6-tagged BTK to IC50 for human full length N-terminal His6-tagged BMX

Serine/threonine-protein kinase PLK1, sequence (P53350 whole entry): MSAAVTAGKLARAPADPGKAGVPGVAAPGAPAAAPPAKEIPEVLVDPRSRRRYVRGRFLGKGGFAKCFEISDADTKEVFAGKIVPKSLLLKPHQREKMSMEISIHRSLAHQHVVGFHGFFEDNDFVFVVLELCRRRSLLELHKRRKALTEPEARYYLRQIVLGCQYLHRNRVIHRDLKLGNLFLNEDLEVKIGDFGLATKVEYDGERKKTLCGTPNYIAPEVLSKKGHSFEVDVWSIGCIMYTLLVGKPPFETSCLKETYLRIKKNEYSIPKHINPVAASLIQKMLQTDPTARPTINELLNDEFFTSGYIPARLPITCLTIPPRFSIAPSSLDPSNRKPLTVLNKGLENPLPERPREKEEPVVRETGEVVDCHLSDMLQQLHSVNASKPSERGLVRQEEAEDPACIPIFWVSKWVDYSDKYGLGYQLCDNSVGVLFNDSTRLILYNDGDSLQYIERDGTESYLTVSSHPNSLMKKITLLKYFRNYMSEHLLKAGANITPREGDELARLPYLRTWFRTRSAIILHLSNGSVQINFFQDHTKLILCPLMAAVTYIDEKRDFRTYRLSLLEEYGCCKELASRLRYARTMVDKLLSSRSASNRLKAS
Tyrosine-protein kinase HCK, sequence (P08631 whole entry, the tested form may be a part): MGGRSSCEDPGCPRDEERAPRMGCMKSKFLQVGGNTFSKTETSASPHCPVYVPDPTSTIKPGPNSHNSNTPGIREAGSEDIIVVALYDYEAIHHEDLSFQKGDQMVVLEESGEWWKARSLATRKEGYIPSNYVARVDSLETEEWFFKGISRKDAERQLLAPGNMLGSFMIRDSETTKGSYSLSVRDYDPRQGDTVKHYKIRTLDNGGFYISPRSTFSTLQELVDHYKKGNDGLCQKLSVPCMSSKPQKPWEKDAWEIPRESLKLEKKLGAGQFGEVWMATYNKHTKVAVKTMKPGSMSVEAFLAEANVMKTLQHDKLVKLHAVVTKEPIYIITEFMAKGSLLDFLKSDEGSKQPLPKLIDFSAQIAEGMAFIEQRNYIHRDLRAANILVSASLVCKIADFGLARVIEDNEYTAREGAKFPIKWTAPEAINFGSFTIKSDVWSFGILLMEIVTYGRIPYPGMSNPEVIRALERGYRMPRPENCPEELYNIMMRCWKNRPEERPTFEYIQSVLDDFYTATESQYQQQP
Tyrosine-protein kinase TXK, sequence (P42681 whole entry): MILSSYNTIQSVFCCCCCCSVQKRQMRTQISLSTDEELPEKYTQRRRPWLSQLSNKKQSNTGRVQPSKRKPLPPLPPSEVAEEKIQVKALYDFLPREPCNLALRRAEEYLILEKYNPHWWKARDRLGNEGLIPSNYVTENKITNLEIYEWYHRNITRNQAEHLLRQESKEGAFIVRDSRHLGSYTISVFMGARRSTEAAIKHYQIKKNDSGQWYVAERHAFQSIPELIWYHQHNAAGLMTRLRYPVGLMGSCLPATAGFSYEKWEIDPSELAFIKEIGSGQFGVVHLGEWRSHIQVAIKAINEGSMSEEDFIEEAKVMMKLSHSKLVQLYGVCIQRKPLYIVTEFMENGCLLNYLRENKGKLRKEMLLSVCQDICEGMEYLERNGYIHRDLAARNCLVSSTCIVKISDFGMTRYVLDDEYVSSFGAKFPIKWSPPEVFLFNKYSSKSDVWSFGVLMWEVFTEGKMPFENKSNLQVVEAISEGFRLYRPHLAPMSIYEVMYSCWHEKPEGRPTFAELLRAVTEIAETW
Receptor tyrosine-protein kinase erbB-4, sequence (Q15303 whole entry, the tested form may be a part): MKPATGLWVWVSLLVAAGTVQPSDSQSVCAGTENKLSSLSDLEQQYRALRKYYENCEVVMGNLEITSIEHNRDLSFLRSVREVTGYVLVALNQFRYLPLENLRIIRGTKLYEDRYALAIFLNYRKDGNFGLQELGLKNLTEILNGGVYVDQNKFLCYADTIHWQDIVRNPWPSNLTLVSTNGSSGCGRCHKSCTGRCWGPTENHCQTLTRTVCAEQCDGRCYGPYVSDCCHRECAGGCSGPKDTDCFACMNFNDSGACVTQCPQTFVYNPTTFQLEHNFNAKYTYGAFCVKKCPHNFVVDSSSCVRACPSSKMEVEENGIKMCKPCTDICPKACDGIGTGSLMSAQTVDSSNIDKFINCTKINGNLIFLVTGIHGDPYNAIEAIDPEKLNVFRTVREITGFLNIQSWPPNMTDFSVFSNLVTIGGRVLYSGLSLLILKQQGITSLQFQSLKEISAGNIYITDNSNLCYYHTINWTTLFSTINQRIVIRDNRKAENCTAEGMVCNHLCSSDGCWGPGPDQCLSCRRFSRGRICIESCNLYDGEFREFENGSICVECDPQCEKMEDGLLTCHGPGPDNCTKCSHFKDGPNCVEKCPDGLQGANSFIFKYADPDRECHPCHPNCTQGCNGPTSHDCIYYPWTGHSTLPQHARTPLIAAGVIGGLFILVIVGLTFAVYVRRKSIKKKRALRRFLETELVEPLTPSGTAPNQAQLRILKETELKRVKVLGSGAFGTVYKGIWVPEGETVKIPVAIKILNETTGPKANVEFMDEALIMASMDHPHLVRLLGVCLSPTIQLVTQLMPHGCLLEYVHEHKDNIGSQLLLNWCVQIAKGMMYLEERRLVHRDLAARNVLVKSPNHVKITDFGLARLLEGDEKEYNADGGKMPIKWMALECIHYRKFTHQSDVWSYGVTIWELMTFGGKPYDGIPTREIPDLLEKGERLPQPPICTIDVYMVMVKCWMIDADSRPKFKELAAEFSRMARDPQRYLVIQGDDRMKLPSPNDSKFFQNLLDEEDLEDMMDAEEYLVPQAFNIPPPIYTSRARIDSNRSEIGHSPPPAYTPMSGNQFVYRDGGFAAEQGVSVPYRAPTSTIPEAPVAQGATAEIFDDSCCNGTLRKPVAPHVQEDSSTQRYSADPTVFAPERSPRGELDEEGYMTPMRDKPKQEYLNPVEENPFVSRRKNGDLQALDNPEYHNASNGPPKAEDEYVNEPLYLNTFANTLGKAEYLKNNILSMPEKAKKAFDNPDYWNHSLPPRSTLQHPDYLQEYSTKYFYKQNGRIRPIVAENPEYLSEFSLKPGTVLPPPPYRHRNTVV
Tyrosine-protein kinase ITK/TSK, sequence (Q08881 whole entry, the tested form may be a part): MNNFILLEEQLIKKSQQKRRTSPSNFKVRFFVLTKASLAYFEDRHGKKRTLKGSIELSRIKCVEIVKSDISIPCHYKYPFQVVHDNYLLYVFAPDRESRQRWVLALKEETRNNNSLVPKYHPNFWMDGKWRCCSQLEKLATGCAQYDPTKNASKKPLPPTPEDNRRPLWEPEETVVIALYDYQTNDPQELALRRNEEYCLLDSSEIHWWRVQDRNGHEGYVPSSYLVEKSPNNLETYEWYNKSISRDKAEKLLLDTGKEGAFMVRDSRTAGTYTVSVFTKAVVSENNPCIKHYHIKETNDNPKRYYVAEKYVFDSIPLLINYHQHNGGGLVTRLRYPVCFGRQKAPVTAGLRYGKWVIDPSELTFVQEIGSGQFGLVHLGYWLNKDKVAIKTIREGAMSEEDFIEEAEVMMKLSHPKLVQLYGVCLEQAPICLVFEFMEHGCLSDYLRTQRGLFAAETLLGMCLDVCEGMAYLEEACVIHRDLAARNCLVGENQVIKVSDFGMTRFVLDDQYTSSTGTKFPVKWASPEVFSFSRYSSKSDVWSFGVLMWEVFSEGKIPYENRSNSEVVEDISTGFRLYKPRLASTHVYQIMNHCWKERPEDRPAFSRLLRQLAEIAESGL
Macrophage colony-stimulating factor 1 receptor, sequence (P07333 whole entry, the tested form may be a part): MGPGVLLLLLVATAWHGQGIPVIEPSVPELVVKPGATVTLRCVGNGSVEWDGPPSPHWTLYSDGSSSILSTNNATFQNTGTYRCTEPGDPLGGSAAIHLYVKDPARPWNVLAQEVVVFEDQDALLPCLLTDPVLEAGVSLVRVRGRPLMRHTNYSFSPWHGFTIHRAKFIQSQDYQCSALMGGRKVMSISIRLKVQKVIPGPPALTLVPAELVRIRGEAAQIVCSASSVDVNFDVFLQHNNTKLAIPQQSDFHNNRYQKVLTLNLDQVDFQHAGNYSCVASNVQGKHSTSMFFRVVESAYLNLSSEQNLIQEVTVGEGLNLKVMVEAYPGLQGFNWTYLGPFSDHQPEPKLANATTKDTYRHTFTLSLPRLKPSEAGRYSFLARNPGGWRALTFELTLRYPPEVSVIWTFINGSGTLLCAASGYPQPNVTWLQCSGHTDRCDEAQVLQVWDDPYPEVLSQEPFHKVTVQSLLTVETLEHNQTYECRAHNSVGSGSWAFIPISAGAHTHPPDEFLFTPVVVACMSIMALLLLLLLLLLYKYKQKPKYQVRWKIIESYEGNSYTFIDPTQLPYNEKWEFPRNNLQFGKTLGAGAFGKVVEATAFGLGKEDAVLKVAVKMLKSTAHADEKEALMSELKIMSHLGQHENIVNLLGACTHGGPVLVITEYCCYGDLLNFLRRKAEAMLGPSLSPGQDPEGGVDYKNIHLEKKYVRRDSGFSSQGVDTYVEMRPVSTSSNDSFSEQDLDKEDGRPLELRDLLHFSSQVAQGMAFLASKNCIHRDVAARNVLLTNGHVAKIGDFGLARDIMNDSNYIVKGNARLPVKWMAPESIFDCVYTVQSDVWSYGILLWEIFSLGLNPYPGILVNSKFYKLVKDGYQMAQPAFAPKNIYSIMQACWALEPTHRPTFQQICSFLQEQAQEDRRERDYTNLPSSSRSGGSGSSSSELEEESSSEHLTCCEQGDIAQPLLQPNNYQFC
Tyrosine-protein kinase Lyn, sequence (P07948 whole entry): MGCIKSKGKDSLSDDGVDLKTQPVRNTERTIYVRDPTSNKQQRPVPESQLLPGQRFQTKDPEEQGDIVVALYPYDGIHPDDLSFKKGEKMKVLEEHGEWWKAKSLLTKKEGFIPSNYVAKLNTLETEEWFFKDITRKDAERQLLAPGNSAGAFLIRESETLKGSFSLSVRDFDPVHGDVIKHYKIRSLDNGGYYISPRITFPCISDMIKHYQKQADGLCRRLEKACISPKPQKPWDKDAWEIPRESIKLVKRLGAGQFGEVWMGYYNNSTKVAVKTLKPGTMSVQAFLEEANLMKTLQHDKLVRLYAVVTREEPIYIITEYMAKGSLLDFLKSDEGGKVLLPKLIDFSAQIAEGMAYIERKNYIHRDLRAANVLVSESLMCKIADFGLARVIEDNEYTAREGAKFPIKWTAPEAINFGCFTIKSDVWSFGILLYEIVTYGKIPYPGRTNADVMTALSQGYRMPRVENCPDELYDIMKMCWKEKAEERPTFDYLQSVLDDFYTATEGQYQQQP

Ratio IC50 [1]: 28.1
pIC50 [2]: 6.05
pIC50 [3]: 6.29
Ratio IC50 [4]: 18
pIC50 [5]: 6.51
Ratio IC50 [6]: 25.7
pIC50 [7]: 5.87
pIC50 [8]: < 5.00
Ratio IC50 [9]: 229
Ratio IC50 [10]: > 280
pIC50 [11]: 6.70
Ratio IC50 [12]: 5.5
pIC50 [13]: 5.55
pIC50 [14]: 5.33
pIC50 [15]: 6.39
Ratio IC50 [16]: 158
pIC50 [17]: 5.25
Ratio IC50 [18]: 91.7
pIC50 [19]: < 5.00
pIC50 [20]: 7.05
pIC50 [21]: 6.00
pIC50 [22]: 7.24
solubility [23]: 100 µg/mL (≈ 234 µM)
pIC50 [25]: 6.71
Ratio IC50 [26]: > 280
Ratio IC50 [27]: 2.5
SMILES: C=CS(=O)(=O)N1CCC[C@@H]1Cn1cc(-c2ccc3c(c2)OCO3)c2c(N)ncnc21
Activity [24]: Non-Toxic
